In assay [1] the test system is porcine gastric mucin extract (50 kDa band matched to Muc5ac mucin). Briefly: Mucolytic activity on gastric mucin (electrophoresis, Coomassie stain). It is filed as biochemical. The conditions noted are these: summary of FIG. 7 and FIG. 8. The protocol:
FIG. 7 presents the effects of cysteamine bitartrate and compound 646 on porcine gastric mucin extract. One hundred microliters of gastric mucin extract (5 mg/mL) was incubated with and without cysteamine bitartrate and compound 646 separately, at 37° C. for 60 minutes.
Gastric Mucin extract solution: Mucin was prepared as stock solution of 5 mg/mL in water, in NaCl Ringer (150 mM Na^+, 4.6 mM K^+, 1 mM Ca^2+, 1 mM Mg^2+, 150 mM Cl^−, 2.5 mM PO4^x− and 10 mM glucose) pH 7.2, and in HCO3-Ringer solution (150 mM Na^+, 4.6 mM K^+, 1 mM Ca^2+, 1 mM Mg^2+, […] HCO3^−, 2.5 mM PO4^x− and 10 mM glucose) pH 8.
Mucolytic activity on gastric mucin. One hundred microliters of mucin solution were incubated with Cysteamine bitartrate or compound 646 at final concentrations from 0 to 2 mM as indicated in the text. Mixture was incubated at 37° C. for 0-1 hr. Mucolytic activity was ended with 30 microliters of SDS-sample buffer solution. Forty-five microliters of each sample/well were separated in an electrophoresis gel 4-12% Tris-Glycine. After electrophoresis gels were stained with Coomassie Blue solution.
In vitro mucolytic activity of cysteamine bitartrate and compound 646. To evaluate the mucolytic activity of cysteamine bitartrate and 2-aminoethane-1-d-1-thiol hydrochloride (Compound 646), gastric mucin extract was used as a substrate that was treated with 200 and 400 μM of cysteamine bitartrate or Compound 646 respectively.
Mass spectrometry analysis of the isolated 50 kDa protein band. Muc5ac and Muc6 mucins are two major secretory mucins found in the stomach. In order identify which of these mucins were part of the 50 kDa band, mass spectrometry was utilized. Mass spectrometry analysis of the 50 kDa protein band identified 17 unique peptides that matched with porcine Muc5ac mucin.

Assay [2] has as its system mucin extracted from porcine guts. Briefly: Effects of cysteamine at nM concentrations on mucin extracted from porcine guts. It counts as biochemical. Particulars: FIG. 11. From the text: FIG. 11 showing the effects of cysteamine at nM concentrations, on mucin extracted from porcine guts.
The test system of assay [3] is mucin released over the luminal airway surface. Briefly: Mucin clearance on surface airway epithelium of isolated porcine airways (histology). Particulars: 200 μM, 5 min, after bicarbonate (25 mM) and PGE2 (10 μM) 5 min at 37° C. The protocol: Cysteamine facilitates clearance of mucin released over the luminal airway surface. Porcine airways were incubated in the presence of buffer containing bicarbonate (25 mM) and PGE2 (10 μM) for 5 min at 37° C. Thereafter, airways were subsequently incubated in the presence or absence of Cysteamine (200 μM) for an additional 5 min. Airways, were harvested and processed for histological analysis.
(§1) Biological specimens: Isolated native porcine airways were used as experimental model. Sections of open trachea tissue (approx. 2 cm^2) were carefully rinsed and cover small volume of NaHCO3-Ringer solution. Mucus secretion was stimulated with Prostaglandin E2 (PGE2, 10−6 M). Secreted mucus over the dissected open airways was carefully collected, aliquoted and immediately frozen at −80° C.

The next assay concerns porcine airway. Briefly: Ex vivo porcine airway models (summary statement). From the text: Abnormal mucus accumulation in airways has deleterious, and fatal consequence in patients suffering from respiratory obstructive diseases, such as cystic fibrosis (CF), COPD and asthma. Therefore, there is a need for therapies aimed at decreasing mucus accumulation to facilitate airway mucus clearance.

Another assay relates to porcine airway mucus. Kind of assay: Mucolytic activity on porcine airway mucin (electrophoresis, Coomassie stain). It is filed as biochemical. The conditions noted are these: summary of FIG. 10. The protocol: FIG. 9 presents the effect of compound 646 on porcine airway mucus. Mucus collected from porcine upper airways diluted in NaHCO3-Ringer, was treated with different concentrations of compound 646 (0, 0.25. 0.5 and 1 mM), for 60 minutes at 37° C. In lane 1, representative protein pattern after electrophoresis protein separation of untreated porcine airway mucus (40 μg/well).
Airway mucus supernatant diluted in NaHCO3-Ringer was treated with or without cysteamine bitartrate under basic and acidic conditions at 37° C. for 60 minutes.
as §1
Mucolytic activity on porcine airway mucin: One hundred microliters of collected porcine airway supernatant was incubated with Cysteamine bitartrate or compound 646 at final concentrations from 0 to 2 mM as indicated in the text. Mucolytic activity was ended with 30 microliters of SDS-sample buffer solution. 45 microliters of each sample/well were separated in an electrophoresis gel 4-12% Tris-Glycine. After electrophoresis gels were stained with Coomassie Blue solution.
Mucolytic activity of synthetic compound 646. Respiratory airway mucus contained Muc5aC and Muc5B mucins. In order to determine whether compound 646 be used as a mucolytic agent for respiratory airways, supernatant of mucus collected from porcine airways was treated with compound 646 at different concentration (0-1 mM) for 1 h at 37° C.
Mucolytic activity of cysteamine bitartrate under basic and acidic conditions. To validate whether mucolytic activity of cysteamine bitartrate depends on changes of pH, airway mucus supernatant was incubated for 1 h at 37° C. with or without 2 mM cysteamine bitartrate diluted in NaHCO3. An additional airway mucus sample was treated with cysteamine bitartrate and supplemented with 4 μL of 0.1 N of acetic solution pH 4.5. […] The reduction, however, was approximately half of the decrease seen under acidic conditions.

For a further assay, the system named is Porcine mucin 15% (W/V). Kind of assay: Mucolytic activity: mucin viscosity by volume displaced through Pasteur pipette. Particulars: 10 mg/mL, Ringer buffer with bicarbonate (25 mM), 4 hours at 37° C.; versus without cysteamine. It is filed as biochemical. The protocol:
Porcine mucin 15% (W/V) was incubated in Ringer buffer solution containing bicarbonate (25 mM) in the presence (+) or absence (−) of Cysteamine bitartrate (10 mg/mL), for 4 h at 37° C. Thereafter, equal volume of mucin solution from each condition were aspirated separately in a sterile Pasteur pipette. Changes in mucin viscosity was measured by the rapidity of the volume displaced toward the bottom of the pipette, as indicated in each panel (0-12 seconds). […] Porcine mucin 15% (W/V) was incubated in Ringer buffer solution containing bicarbonate (25 mM) in the presence (+) or absence (−) of cysteamine bitartrate (10 mg/mL), for 4 hours at 37° C. Changes in mucin viscosity was determined by the percentage of volume displaced as a function of time (0-12 seconds) through a vertical sterile Pasteur pipette tip at room temperature.

In the case of `NCCS` [Cysteamine bitartrate, reference compound], in assay [1], the “anti-mucin effect against gastric mucin, Muc5ac in particular” value is “anti-mucin effect against gastric mucin”. In assay [2], the “dose dependence of mucolytic effect” value is listed as “dose dependent”. In addition, in assay [3], the “mucin clearance on airway surface epithelium” value is recorded as “cleared from the luminal surface”. Moreover, the “accumulation of viscous mucus and mucociliary clearance” value in the assay with porcine airway was “prevented accumulation of viscous mucus and improves mucociliary clearance”. Moreover, the “influence of acidic conditions on mucolytic effect” value with porcine airway mucus is recorded as “enhanced when acidic conditions are used”. Also, in the assay on Porcine mucin 15% (W/V), the “displaced volume percentage of porcine mucin as a function of time (0-12 seconds)” value is reported as “noticeably reduced”.
